Results on 36 molecules are retold here after ChEMBL document CHEMBL3102758, “Structure-activity relationship study of BACE1 inhibitors possessing a chelidonic or 2,6-pyridinedicarboxylic scaffold at the P(2) position” (Bioorg Med Chem Lett, 2014).

The inhibition is the percentage by which the read-out fell short of the control. As usually defined, the IC50 is the concentration that gives 50% inhibition.

Assay [1] addresses T1, Beta-secretase 1 (Homo sapiens, UniProt P56817). Put plainly: Inhibition of recombinant human BACE1 using (7-methoxycoumarin-4-yl)acetyl-SEVNL*DAEFRK(2,4-dinitrophenyl)-RR-NH2) as substrate at 2 uM by FRET assay.
The target of assay [2] is T1, Beta-secretase 1. In words: Inhibition of recombinant human BACE1 using (7-methoxycoumarin-4-yl)acetyl-SEVNL*DAEFRK(2,4-dinitrophenyl)-RR-NH2) as substrate at 0.2 uM by FRET assay.
For assay [3], the target named is T1, Beta-secretase 1. Put plainly: Inhibition of recombinant human BACE1 using (7-methoxycoumarin-4-yl)acetyl-SEVNL*DAEFRK(2,4-dinitrophenyl)-RR-NH2) as substrate by FRET assay.

T1 sequence (P56817 whole entry): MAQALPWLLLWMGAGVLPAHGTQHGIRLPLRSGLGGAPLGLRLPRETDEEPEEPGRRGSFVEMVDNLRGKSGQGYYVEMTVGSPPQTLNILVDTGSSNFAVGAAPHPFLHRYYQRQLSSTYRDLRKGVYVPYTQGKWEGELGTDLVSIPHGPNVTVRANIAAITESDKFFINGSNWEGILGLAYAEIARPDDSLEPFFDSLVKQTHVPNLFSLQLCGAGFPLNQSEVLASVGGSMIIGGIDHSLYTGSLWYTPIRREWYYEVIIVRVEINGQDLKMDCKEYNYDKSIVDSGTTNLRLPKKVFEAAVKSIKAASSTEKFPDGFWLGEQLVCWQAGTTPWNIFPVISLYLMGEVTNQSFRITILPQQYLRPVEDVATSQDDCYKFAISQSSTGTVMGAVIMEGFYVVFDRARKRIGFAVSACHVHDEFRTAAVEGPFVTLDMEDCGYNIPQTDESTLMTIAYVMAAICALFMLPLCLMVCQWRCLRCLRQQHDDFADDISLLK

For `CCCN(CCC)C(=O)c1cc(=O)cc(C(=O)N[C@@H](Cc2ccccc2)[C@@H](O)C(=O)Nc2cccc(-c3noc(=O)[nH]3)c2)o1`, the inhibition in assay [1] was determined as 23%.
Same read-out and setting: to `CCCOc1cc(C(=O)N[C@@H](Cc2ccccc2)[C@H](O)C(=O)Nc2cccc(-c3nn[nH]n3)c2)nc(C(=O)N2COC[C@@H]2c2ccccc2)c1` belongs 64%; to `CSc1cc(C(=O)N[C@@H](Cc2ccccc2)[C@H](O)C(=O)Nc2cccc(-c3nn[nH]n3)c2)nc(C(=O)NC(C)(C)c2ccccc2)c1`, 85%; to `CN(NC(=O)c1cc(=O)cc(C(=O)N[C@@H](Cc2ccccc2)[C@H](O)C(=O)Nc2cccc(-c3nn[nH]n3)c2)o1)c1ccccc1`, 21%.
In the case of `CCOc1cc(C(=O)N[C@@H](Cc2ccccc2)[C@H](O)C(=O)Nc2cccc(-c3nn[nH]n3)c2)nc(C(=O)N[C@H](C)c2ccccc2)c1`, the inhibition in assay [1] is 46%.
Still for that read-out and setting: to `C[C@@H](NC(=O)c1cc(=O)cc(C(=O)N[C@@H](Cc2ccccc2)[C@H](O)C(=O)Nc2cccc(-c3nn[nH]n3)c2)o1)c1ccc(F)cc1` belongs 76%.
`CSc1cc(C(=O)N[C@@H](Cc2ccccc2)[C@H](O)C(=O)Nc2cccc(-c3nn[nH]n3)c2)nc(C(=O)N2COC[C@@H]2c2ccccc2)c1`: the inhibition turned out to be 95% in assay [1] and 66% in assay [2]. Besides, the IC50 in assay [3] is 89 nM.
On to `COc1cc(C(=O)N[C@@H](Cc2ccccc2)[C@H](O)C(=O)Nc2cccc(-c3nn[nH]n3)c2)nc(C(=O)N[C@H](C)c2ccccc2)c1`, for which the inhibition in assay [1] amounted to 73%.
Same read-out and setting: to `C[C@@H](NC(=O)c1cc(=O)cc(C(=O)N[C@@H](Cc2ccccc2)[C@H](O)C(=O)Nc2cccc(-c3nn[nH]n3)c2)o1)c1ccc([N+](=O)[O-])cc1` belongs 51%; to `O=C(NC(c1ccccc1)c1ccccc1)c1cc(=O)cc(C(=O)N[C@@H](Cc2ccccc2)[C@H](O)C(=O)Nc2cccc(-c3nn[nH]n3)c2)o1`, 13%.
`[N-]=[N+]=Nc1cc(C(=O)N[C@@H](Cc2ccccc2)[C@H](O)C(=O)Nc2cccc(-c3nn[nH]n3)c2)nc(C(=O)N2COC[C@@H]2c2ccccc2)c1`: the inhibition in assay [1] was 95%; in assay [2] it was 68%. In addition, the IC50 in assay [3] came to 79 nM.
For `C[C@@H](NC(=O)c1cc(=O)cc(C(=O)N[C@@H](Cc2ccccc2)[C@H](O)C(=O)Nc2cccc(-c3nn[nH]n3)c2)o1)c1ccc(Cl)cc1`, the inhibition in assay [1] is 61%.
Consider `Nc1cc(C(=O)N[C@@H](Cc2ccccc2)[C@H](O)C(=O)Nc2cccc(-c3nn[nH]n3)c2)nc(C(=O)N2COC[C@@H]2c2ccccc2)c1`, for which the figures for the inhibition in assay [1] and in assay [2] were 78% and 53%, respectively.
On to `O=C(N[C@@H](Cc1ccccc1)[C@H](O)C(=O)Nc1cccc(-c2nn[nH]n2)c1)c1cc(=O)cc(C(=O)N(Cc2ccccc2)Cc2ccccc2)o1`, for which the inhibition in assay [1] turned out to be 29%.
Still for that read-out and setting: to `O=C(NCc1ccccc1)c1cc(=O)cc(C(=O)N[C@@H](Cc2ccccc2)[C@H](O)C(=O)Nc2cccc(-c3nn[nH]n3)c2)o1` belongs 25%.
`C[C@@H](NC(=O)c1cc(OS(=O)(=O)Cc2ccccc2)cc(C(=O)N[C@@H](Cc2ccccc2)[C@H](O)C(=O)Nc2cccc(-c3nn[nH]n3)c2)n1)c1ccccc1`: the inhibition in assay [1] turned out to be 29%.
On the same count and under the same terms, to `CCOc1cc(C(=O)N[C@@H](Cc2ccccc2)[C@H](O)C(=O)Nc2cccc(-c3nn[nH]n3)c2)nc(C(=O)NC(C)(C)c2ccccc2)c1` belongs 42%.
As for `CCCN(CCC)C(=O)c1cc(=O)cc(C(=O)N[C@@H](Cc2ccccc2)[C@@H](O)C(=O)Nc2cccc(-c3nnn[nH]3)c2)o1`, the inhibition in assay [1] was found to be 60%.
Same read-out and setting: to `C[C@@H](NC(=O)c1cc(=O)cc(C(=O)N[C@@H](Cc2ccccc2)[C@H](O)C(=O)Nc2cccc(-c3nn[nH]n3)c2)o1)C1CCCCC1` belongs 26%.
Still for that read-out and setting: to `CC(C)Sc1cc(C(=O)N[C@@H](Cc2ccccc2)[C@H](O)C(=O)Nc2cccc(-c3nn[nH]n3)c2)nc(C(=O)N2COC[C@@H]2c2ccccc2)c1` belongs 72%; to `CCOc1cc(C(=O)N[C@@H](Cc2ccccc2)[C@H](O)C(=O)Nc2cccc(-c3nn[nH]n3)c2)nc(C(=O)N2COC[C@@H]2c2ccccc2)c1`, 79%.
On the same count and under the same terms, to `C[C@@H](NC(=O)c1cc(=O)cc(C(=O)N[C@@H](Cc2ccccc2)[C@H](O)C(=O)Nc2cccc(-c3nn[nH]n3)c2)o1)c1cccc(F)c1` belongs 62%.
`COc1cc(C(=O)N[C@@H](Cc2ccccc2)[C@H](O)C(=O)Nc2cccc(-c3nn[nH]n3)c2)nc(C(=O)N2COC[C@@H]2c2ccccc2)c1`: the inhibition in assay [1] is 91%; in assay [2], 53%. Also, the IC50 in assay [3] is 151 nM.
Turning to `CC[C@@H](NC(=O)c1cc(=O)cc(C(=O)N[C@@H](Cc2ccccc2)[C@H](O)C(=O)Nc2cccc(-c3nn[nH]n3)c2)o1)c1ccccc1`, the inhibition in assay [1] came out at 32%.
Still for that read-out and setting: to `Cc1ccc([C@@H](C)NC(=O)c2cc(=O)cc(C(=O)N[C@@H](Cc3ccccc3)[C@H](O)C(=O)Nc3cccc(-c4nn[nH]n4)c3)o2)cc1` belongs 54%.
Still for that read-out and setting: to `CCCN(CCC)C(=O)c1cc(=O)cc(C(=O)N[C@@H](Cc2ccccc2)[C@@H](O)C(=O)Nc2cccc(C(=O)O)c2)o1` belongs 10%; to `CSc1cc(C(=O)N[C@@H](Cc2ccccc2)[C@H](O)C(=O)Nc2cccc(-c3nn[nH]n3)c2)nc(C(=O)N[C@H](C)c2ccccc2)c1`, 82%.
The same measure, in the same setting: to `CCCN(CCC)C(=O)c1cc(=O)cc(C(=O)N[C@@H](Cc2ccccc2)[C@H](O)C(=O)Nc2cccc(-c3nnn[nH]3)c2)o1` belongs 6%.
For the molecule `COc1cc(C(=O)N[C@@H](Cc2ccccc2)[C@H](O)C(=O)Nc2cccc(-c3nn[nH]n3)c2)nc(C(=O)NC(C)(C)c2ccccc2)c1`, the inhibition in assay [1] came to 74%.
The same measure, in the same setting: to `CN(Cc1ccccc1)C(=O)c1cc(=O)cc(C(=O)N[C@@H](Cc2ccccc2)[C@H](O)C(=O)Nc2cccc(-c3nn[nH]n3)c2)o1` belongs 67%; to `O=C(N[C@@H](CO)c1ccccc1)c1cc(=O)cc(C(=O)N[C@@H](Cc2ccccc2)[C@H](O)C(=O)Nc2cccc(-c3nn[nH]n3)c2)o1`, 11%.
As to `Cc1cc(C(=O)N[C@@H](Cc2ccccc2)[C@H](O)C(=O)Nc2cccc(-c3nn[nH]n3)c2)nc(C(=O)N2COC[C@@H]2c2ccccc2)c1`, the inhibition in assay [1] turned out to be 95%; in assay [2], 68%.
Consider `COc1cccc([C@@H](C)NC(=O)c2cc(=O)cc(C(=O)N[C@@H](Cc3ccccc3)[C@H](O)C(=O)Nc3cccc(-c4nn[nH]n4)c3)o2)c1`, for which the inhibition in assay [1] was found to be 48%.
Regarding `COc1ccc([C@@H](C)NC(=O)c2cc(=O)cc(C(=O)N[C@@H](Cc3ccccc3)[C@H](O)C(=O)Nc3cccc(-c4nn[nH]n4)c3)o2)cc1`, in assay [1], the inhibition is 70%.
Turning to `CN(c1cc(C(=O)N[C@@H](Cc2ccccc2)[C@H](O)C(=O)Nc2cccc(-c3nn[nH]n3)c2)nc(C(=O)N2COC[C@@H]2c2ccccc2)c1)S(C)(=O)=O`, the inhibition in assay [1] stood at 75%.
On to `C[C@H](NC(=O)c1cc(=O)cc(C(=O)N[C@@H](Cc2ccccc2)[C@H](O)C(=O)Nc2cccc(-c3nn[nH]n3)c2)o1)c1ccccc1`, for which the inhibition in assay [1] turned out to be 25%.
